Experimental data as given in article PMC9785194, “New Dibenzo-α-pyrone Derivatives with α-Glucosidase Inhibitory Activities from the Marine-Derived Fungus Alternaria alternata” (Marine Drugs, 2022).

What was measured:
α-glucosidase [1] = experiment: α-glucosidase inhibition assay (p-NPG substrate); format: biochemical, Saccharomyces cerevisiae; conditions: for α-glucosidase inhibition rate: at a concentration of 400 µM; for IC50: 0.5 U/mL enzyme, p-NPG substrate, 37 °C
Experimental: (§1) Optical rotations were measured with an Anton Paar MCP 200 Automatic Polarimeter (Anton Paar, Graz, Austria). The UV data were recorded on a Thermo Genesys-10S UV/Vis spectrophotometer (Thermo Fisher Scientific, Waltham, MA, USA). ECD spectra were recorded with a JASCO J-815 spectropolarimeter (JASCO, Tsukuba, Japan) by using CH3OH as the solvent. Infrared spectra were obtained on a Nicolet IS5 FT-IR spectrophotometer (Thermo Fisher Scientific, Waltham, MA, USA). ^1H and ^13C NMR spectroscopic data were acquired with a Bruker Avance-500 spectrometer (Bruker, Bremen, Germany) using the solvent signals as a reference (CD3OD: δH 3.31/δC 49.00). HRESIMS data were obtained using an Agilent Accurate-Mass-Q-TOF LC/MS 6520 instrument (Agilent Technologies, Santa Clara, CA, USA) equipped with an electrospray ionization (ESI) source. Semi-preparative HPLC separation was performed on an Agilent 1260 instrument equipped with a variable-wavelength UV detector (Agilent Technologies Inc., CA, USA) using a YMC-pack ODS-A (10 × 250 mm, 5 μm, 2 mL/min, YMC CO., LTD., Kyoto, Japan).
The α-glucosidase inhibitory activity assay was measured as described in previous reports. Briefly, 50 μL of 0.5 U/mL α-glucosidase and 25 μL of a series of solutions (0.1, 0.2, 0.4, 0.8 and 1.6 mM) of the test compounds 1−10 were added into 96-well plates. After incubation at 37 °C for 10 min, 25 μL of 25 mM p-NPG was added and further incubated at 37 °C for 10 min.

[2] = DPPH antioxidant scavenging assay; conditions: 37 °C, 30 min, absorbance 517 nm
Experimental: The DPPH antioxidant scavenging assay was performed according to the previously reported method. Briefly, 50 µL of DPPH (0.34 mmol/L in EtOH) and 50 µL of a series of solutions (12.5, 25, 50, 100, and 200 μM) of the test compounds 1−10 were mixed in the wells of 96-well plates. Each mixture was incubated at 37 °C for 30 min in a dark environment. The absorbance was read at 517 nm using a microplate reader, employing distilled water as a blank for baseline correction. All experiments were performed in triplicate, and ascorbic acid was used as a positive control.

α-glucosidase [3] = experiment: enzyme kinetics of α-glucosidase inhibition (Lineweaver-Burk and secondary plots); format: biochemical, Saccharomyces cerevisiae; conditions: for inhibition type against α-glucosidase: Lineweaver-Burk plots; for Ki: secondary plots, free enzyme, read-out: Ki (the inhibition constant of the free enzyme)
Experimental: as §1
The inhibition types of compounds 2 and 3 on α-glucosidase were determined by Lineweaver−Burk plots according to a previous report. The α-glucosidase inhibition kinetics were determined with selected concentrations of p-NPG (1.5625, 3.125, 6.25, 12.5 and 25 mM) under different concentrations of 2 and 3 (200, 400 and 800 μM) by keeping the enzyme concentration at 0.5 U/mL. The inhibition constant was determined by the second plots of the apparent Km/Vm or 1/Vm versus the concentration of the inhibitor.

| SMILES | α-glucosidase inhibition rate (α-glucosidase [1]) | IC50 [2] | IC50 (α-glucosidase [1]) | α-glucosidase inhibition rate (α-glucosidase [1]; 400 µM) | inhibition type against α-glucosidase (α-glucosidase [3]) | Ki (α-glucosidase [3]) |
| --- | --- | --- | --- | --- | --- | --- |
| COc1cc(O)c2c(=O)oc3c(c2c1)[C@@H](C)CC3=O [Compound 9, 1-deoxyrubralactone] | 53.95% |  |  |  |  |  |
| COc1cc(O)c2c(=O)oc3c(O)c(O)cc(C)c3c2c1 [Compound 6, 3′-hydroxyalternariol 5-O-methyl ether] |  | 83.9 ± 4.14 µM |  |  |  |  |
| COc1cc2oc(=O)c3c(O)cc(O)cc3c2cc1O [Compound 8, altenuisol] | 37.29% |  |  |  |  |  |
| COc1cc(O)c2c(=O)oc3cc(O)cc(CO)c3c2c1 [Compound 7, alternariol 1′-hydroxy-9-methyl ether] | 93.70% | 23.6 ± 1.23 µM | 6.27 ± 0.68 µM |  |  |  |
| CC12CC(O)C(O)C=C1c1cc(O)cc(O)c1C(=O)O2 (stereo not drawn) [Compound 2, Alternolide B] |  |  | 725.9 ± 4.75 µM | 36.62% | mixed-type inhibitors | 347 µM |
| CC12CC(O)C(O)C=C1c1cc(O)cc(O)c1C(=O)O2 (stereo not drawn) [Compound 3, Alternolide C] |  |  | 451 ± 6.95 µM | 49.24% | mixed-type inhibitors | 108 µM |
| O=C1O[C@H]([C@@H](O)CO)C(O)=C1O [ascorbic acid, reference compound] |  | 23.7 ± 1.03 µM |  |  |  |  |
